Measured values: patent US11186551B2, “Composition of scalable thyrointegrin antagonists with improved retention in tumors” (NanoPharmaceuticals, LLC, priority 2020, dated 2021)
“Also recorded” adds a separate entry of the source.

Legend:
U87-luc xenografts = test: GBM xenograft efficacy: tumor weight and luminescent signal intensity; assay type: in vivo, Nude mice; details: for Tumor weight after 3 weeks of treatment: control approximately 600 mg; for Luminescent signal intensity after 3 weeks of treatment: control approximately 600,000p/s
Procedure: The efficacy of these compounds/compositions with respect to GBM tumors will now be described with reference to FIGS. 30-33. The study protocol is as follows: Nude mice having U87-luc xenografts were treated with varying dosages of Compound 2 (fb-PMT) for 3 weeks. Efficacy was determined by tumor weight and luminescent signal intensity compared with a control group. Further, treatment efficacy was also evaluated in comparison with known potential treatment Cilengitide. Efficacy was also determined again after an additional 3 week period with no additional treatment.

[1] = test system: angiogenesis induced by bFGF, VEGF, HGF; test: Anti-angiogenic effect in CAM Models in the presence of growth factors; assay type: in vivo
From the text: In addition to good initial uptake, the disclosed compounds also have good anti-angiogenic effect. […] Specifically, Compound 2 is effective at reducing the percentage of angiogenesis present in CAM Models, when administered in the presence of the following growth factors: bFGF, VEGF, VEGF+bFGF, and bFGF+VEGF+HGF.
This broad spectrum anti-angiogenic effect is in contrast to existing therapeutic compounds/compositions such as AVASTIN® (bevacizumab).

[2] = mouse, in vivo, sc, 10 mg/kg
Procedure: Concentrations are shown as recorded 3 h following administration.
Each group contained 4 mice.

[3] = mouse, in vivo, sc, 10 mg/kg; remark: listed apart in the source
Procedure: Again, a single subcutaneous injection was used in mice. The administered dose was 10 mg/Kg.

[4] = cynomolgus monkey, in vivo, sc, 15 mg/kg
[5] = Compound 2 6 mg/kg, Cilengitide 75 mg/kg
[6] = Compound 2 6 mg/kg, Cilengitide 75 mg/kg, control approximately 750 mg
[7] = Compound 2 6 mg/kg, Cilengitide 75 mg/kg, control over 800,000p/s

| Compound | Tumor weight after 3 weeks of treatment (U87-luc xenografts; [5]) | Tumor weight after 3 weeks of treatment followed by 3 weeks without treatment (U87-luc xenografts; [6]) | Luminescent signal intensity after 3 weeks of treatment (U87-luc xenografts; [5]) | Luminescent signal intensity after 3 weeks of treatment followed by 3 weeks without treatment (U87-luc xenografts; [7]) | Average Brain Concentration (ng/g), 3 hour [2] [ng/g] | also measured |
| --- | --- | --- | --- | --- | --- | --- |
| CC(C)[C@H]1C(=O)N[C@@H](CCCN=C(N)N)C(=O)NCC(=O)N[C@@H](CC(=O)O)C(=O)N[C@H](Cc2ccccc2)C(=O)N1C [Cilengitide, reference compound] | approximately 300 mg | over 400 mg | approximately 300,000 p/s | over 500,000 p/s |  |  |
| bevacizumab [AVASTIN®] |  |  |  |  |  | Anti-angiogenic effect in CAM Model against VEGF alone ([1]; VEGF alone): primarily effective against VEGF alone; Percent of angiogenesis in CAM Model for bFGF or HGF ([1]; bFGF or HGF): does not meaningfully reduce; Anti-angiogenic effect in CAM Model, VEGF combined with other growth factors ([1]; bFGF or bFGF and HGF present along with VEGF): does not demonstrate good effect |
| di-tbutylbenzyl conjugated to triazole tetrac by polyethylene glycol [Compound 4] |  |  |  |  | 922 |  |
| fluorobenzyl conjugated to triazole tetrac by polyethylene glycol [Compound 2] | under 50 mg | further reduction | negligible levels | even further reduction | 228 | Tumor weight after 3 weeks of treatment (U87-luc xenografts; all doses 1, 3, 6 and 10 mg/kg): under 100 mg; Tumor weight after 3 weeks of treatment followed by 3 weeks off treatment (U87-luc xenografts; all doses 1, 3, 6 and 10 mg/kg, control approximately 750 mg): further and additional reduction; Luminescent signal intensity after 3 weeks of treatment (U87-luc xenografts; all doses 1, 3, 6 and 10 mg/kg): under 100,000 p/s; Luminescent signal intensity after 3 weeks of treatment followed by 3 weeks off treatment (U87-luc xenografts; all doses 1, 3, 6 and 10 mg/kg, control over 800,000p/s): further and additional reduction; Brain tissue uptake and retention over time [3]: uptake and retention over a 24 hour period; Time of plasma concentration peak [4]: 1 to 4 h; Percentage of angiogenesis in CAM Model ([1]; 1.0 μg, growth factors bFGF, VEGF, VEGF+bFGF, bFGF+VEGF+HGF): only slightly above baseline; also recorded: inhibition of angiogenesis against all three growth factors, both alone and in combination |
